Results: ChEMBL document CHEMBL1201862, “PubChem BioAssay data set” (2004)
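Briefly, cells in 96-well plates were exposed to five compound concentrations for 48 h, and endpoints were estimated by linear interpolation. GI50 is the concentration that inhibits growth by half.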 Calls of active or inactive are those of the source. No stated cut-off is given here; in the data, active = GI50 up to about 1.1 µM and inactive = higher.

Key:
Assay in all cases: DTP human tumour cell line panel, 48 h
[1] = system: SK-MEL-28
[2] = system: CCRF-CEM
[3] = system: OVCAR-8
[4] = system: SNB-75
[5] = system: HCT-15
[6] = system: LXFL 529
[7] = system: M14
[8] = system: NCI-H226
[9] = system: HL-60
[10] = system: CAKI-1
[11] = system: A498
[12] = system: DMS-114
[13] = system: TK-10
[14] = system: NCI-H522
[15] = system: SF-539
[16] = system: 786-0
[17] = system: EKVX
[18] = system: ACHN
[19] = system: U-251
[20] = system: M19-MEL
[21] = system: SK-MEL-5
[22] = system: A549
[23] = system: SR
[24] = system: SK-MEL-2
[25] = system: UACC-257
[26] = system: DMS-273
[27] = system: IGROV-1
[28] = system: NCI-H460
[29] = system: SNB-78
[30] = system: SK-OV-3
[31] = system: RXF 393
[32] = system: HT-29
[33] = system: SF-268
[34] = system: K562
[35] = system: SF-295
[36] = system: KM-20L2
[37] = system: UACC-62
[38] = system: OVCAR-5
[39] = system: COLO 205
[40] = system: SNB-19
[41] = system: LOX IMVI
[42] = system: HCC 2998
[43] = system: SN12C
[44] = system: OVCAR-3
[45] = system: XF498
[46] = system: HOP-92
[47] = system: Malme-3M
[48] = system: MOLT-4
[49] = system: RPMI-8226
[50] = system: SW-620
[51] = system: UO-31
[52] = system: HOP-62
[53] = system: KM12
[54] = system: DLD-1
[55] = system: NCI-H23
[56] = system: HCT-116
[57] = system: HOP-18
[58] = system: OVCAR-4
[59] = system: RXF 631

Measured: GI50

COc1ccccc1/C=C1\CCC(CNc2ccc(Cl)cc2)C1=O (configuration not stated)
1.41 µM: [5]
inactive: [1] 13.2 µM | [2] 1.68 µM | [3] 3.46 µM | [4] 15 µM | [8] 14 µM | [9] 2.18 µM | [10] 2.42 µM | [11] 13.8 µM | [12] 4.08 µM | [13] 5.18 µM | [14] 1.57 µM | [15] 5.82 µM | [16] 10.5 µM | [17] 5.15 µM | [19] 9.75 µM | [20] 1.61 µM | [21] 3.16 µM | [22] 5.16 µM | [23] 1.76 µM | [24] 13.2 µM | [25] 13.8 µM | [26] 1.74 µM | [27] 5.83 µM | [28] 1.43 µM | [29] 19.5 µM | [30] 1.73 µM | [31] 16.3 µM | [32] 2.2 µM | [33] 4.86 µM | [35] 2.49 µM | [38] 10.6 µM | [39] 2.39 µM | [40] 11.8 µM | [42] 6.35 µM | [43] 13.7 µM | [44] 10.2 µM | [45] 27.9 µM | [46] 16.4 µM | [47] 14.5 µM | [48] 2.86 µM | [49] 1.34 µM | [50] 2.09 µM | [51] 3.18 µM | [52] 7.76 µM | [54] 1.31 µM | [55] 5.14 µM | [56] 4.38 µM | [57] 16.5 µM | [58] 14.7 µM
active: [6] 0.226 µM | [7] 0.242 µM | [18] 0.59 µM | [34] 0.215 µM | [36] 0.661 µM | [37] 0.36 µM | [41] 0.254 µM | [53] 1.1 µM

CCCC(=O)OCC1OC2OC(C)(C)OC2C2OC(C)(C)OC12 (configuration not stated)
inactive: [1] > 100 µM | [2] > 100 µM | [3] > 100 µM | [7] > 100 µM | [8] 19 µM | [9] > 100 µM | [11] > 100 µM | [13] 23.6 µM | [14] > 100 µM | [59] > 100 µM | [17] > 100 µM | [18] > 100 µM | [19] > 100 µM | [20] > 100 µM | [22] > 100 µM | [23] > 100 µM | [25] > 100 µM | [26] > 100 µM | [27] > 100 µM | [28] > 100 µM | [29] > 100 µM | [30] > 100 µM | [31] > 100 µM | [32] > 100 µM | [35] > 100 µM | [38] > 100 µM | [40] > 100 µM | [46] > 100 µM | [48] > 100 µM | [51] > 100 µM | [52] > 100 µM | [53] > 100 µM | [55] > 100 µM | [56] > 100 µM

CCN(CC)CSc1nc2ccccc2o1
inactive: [1] > 100 µM | [2] > 100 µM | [3] > 100 µM | [7] > 100 µM | [9] > 100 µM | [11] > 100 µM | [12] > 100 µM | [13] > 100 µM | [14] > 100 µM | [59] > 100 µM | [17] > 100 µM | [18] > 100 µM | [19] > 100 µM | [20] > 100 µM | [22] > 100 µM | [23] > 100 µM | [25] > 100 µM | [26] > 100 µM | [27] > 100 µM | [28] > 100 µM | [29] > 100 µM | [30] > 100 µM | [31] > 100 µM | [32] > 100 µM | [35] > 100 µM | [37] > 100 µM | [38] > 100 µM | [40] > 100 µM | [46] > 100 µM | [48] > 100 µM | [51] > 100 µM | [52] > 100 µM | [53] > 100 µM | [55] > 100 µM | [56] > 100 µM

COc1ccc(NC(=O)C/C(C)=N\N=C(N)N)c([N+](=O)[O-])c1
inactive: [1] > 100 µM | [2] > 100 µM | [3] > 100 µM | [4] > 100 µM | [6] > 100 µM | [7] > 100 µM | [8] > 100 µM | [9] 88.5 µM | [10] > 100 µM | [11] > 100 µM | [12] > 100 µM | [13] > 100 µM | [14] > 100 µM | [15] > 100 µM | [16] > 100 µM | [17] > 100 µM | [18] > 100 µM | [19] > 100 µM | [20] > 100 µM | [21] > 100 µM | [22] > 100 µM | [23] 23.3 µM | [24] > 100 µM | [25] > 100 µM | [26] > 100 µM | [27] > 100 µM | [28] > 100 µM | [29] > 100 µM | [30] > 100 µM | [31] > 100 µM | [32] > 100 µM | [33] > 100 µM | [34] > 100 µM | [35] > 100 µM | [36] > 100 µM | [37] > 100 µM | [38] > 100 µM | [39] > 100 µM | [40] > 100 µM | [41] 33.9 µM | [42] > 100 µM | [43] > 100 µM | [44] > 100 µM | [45] > 100 µM | [46] > 100 µM | [47] > 100 µM | [48] > 100 µM | [49] > 100 µM | [51] > 100 µM | [52] > 100 µM | [53] > 100 µM | [54] 34.5 µM | [55] > 100 µM | [56] > 100 µM | [57] > 100 µM | [58] > 100 µM
> 100 µM: [5]

CN/N=C(/c1nc2ccc([N+](=O)[O-])cc2nc1O)C(O)c1ccc(C(O)/C(=N\NC)c2nc3ccc([N+](=O)[O-])cc3nc2O)cc1 (configuration not stated)
29.5 µM: [5]
inactive: [1] > 100 µM | [2] 19.8 µM | [3] > 100 µM | [4] > 100 µM | [6] 20.7 µM | [7] 52.4 µM | [8] > 100 µM | [9] 4.37 µM | [10] > 100 µM | [11] > 100 µM | [12] 7.16 µM | [13] > 100 µM | [59] 21.3 µM | [15] 42.6 µM | [16] > 100 µM | [17] > 100 µM | [18] 46.9 µM | [19] > 100 µM | [20] > 100 µM | [21] > 100 µM | [22] 64.6 µM | [24] 48 µM | [25] 52.6 µM | [26] 31.4 µM | [27] > 100 µM | [28] 42.6 µM | [29] > 100 µM | [30] > 100 µM | [31] > 100 µM | [32] > 100 µM | [33] > 100 µM | [34] 32.5 µM | [35] 66.4 µM | [36] 63 µM | [37] 44.9 µM | [38] > 100 µM | [39] 64.9 µM | [40] > 100 µM | [41] > 100 µM | [42] 23.9 µM | [44] > 100 µM | [46] > 100 µM | [47] > 100 µM | [48] 48.2 µM | [49] 68.1 µM | [50] 82.8 µM | [51] 55 µM | [52] 42.2 µM | [53] > 100 µM | [54] 35.6 µM | [55] > 100 µM | [56] > 100 µM
